From patent publication US6221901A, “Magnesium (-)hydroxycitrate, method of preparation, applications, and compositions in particular pharmaceutical containing same” (priority 1996, dated 2001)
Where two headings read alike, the source gives them in different places.

How the values were obtained:
[1] = test system: human epithelial cells and rat arterial smooth muscle cells; test: Mortality of human epithelial cells and of rat arterial smooth muscle cells (antioxidant effect, model of oxygen toxicity); assay type: cell-based; details: for protective effect on cell mortality: result in words; for Reduction in percentages: cell mortality: in culture medium: (-)hydroxycitrate 0.1 mM, silicon 0.036 mM, magnesium 0.1 mM
Experimental: (§1) 1) Study of the Mortality of Human Epithelial Cells and of Rat Arterial Smooth Muscle Cells.
The antioxidant effects of (-)hydroxycitrate and of different minerals were tested according to the protocol described by Michiels et al: "A new experimental model to study oxygen toxicity", Arch. int. Physiol. Biochem. 94 (5), S13-S18, 1986, using rat hepatocytes, as well as human epithelial cells and rat arterial smooth muscle cells.
(§2) The various products were respectively tested at the following concentrations: […]

[2] = test system: rat arterial smooth muscle cells; test: Accumulation of intracellular lipids in arterial smooth muscle cells; assay type: cell-based; details: for Reduction in percentages: accumulation of lipids: in culture medium: (-)hydroxycitrate 0.1 mM, silicon 0.036 mM, magnesium 0.1 mM
Experimental: as §1
(§3) The inhibitory effects of these compounds on the proliferation of arterial smooth muscle and on the accumulation of intracellular lipids was also tested using the method described by Shrivastava et al. in Meth. Find. Exp. Clin. Pharmacol. 15 (6), pages 345-350, 1993.
as §2

[3] = test system: rat arterial smooth muscle cells; test: Proliferation of arterial smooth muscle cells; assay type: cell-based; details: for Reduction in percentages: proliferation of cells: in culture medium: (-)hydroxycitrate 0.1 mM, silicon 0.036 mM, magnesium 0.1 mM
Experimental: as §1, §3, §2

[4] = test system: hypercholesterolemic rabbits; test: Effect in vivo on the cholesterol level in hypercholesterolemic rabbits; design: species or system rabbit; details: 750 mg/kg oral
Experimental: (§4) 2) Study of the Effect in vivo on the Cholesterol Level and on Lipidic Deposits in Hypercholesterolemic Rabbits.
(§5) Two batches of 20 male rabbits (Elevage scientifique des Dombes: 2.5-3 kg) received a cholesterol-rich food (1%) for a period of 8 weeks. The first batch were not treated and therefore served as a control while the second batch received 750 mg/kg of magnesium (-)hydroxycitrate by oral route.

[5] = test system: wall of the aorta, hypercholesterolemic rabbits; test: Lipidic deposits on the wall of the aorta in hypercholesterolemic rabbits; assay type: in vivo, rabbit; details: 750 mg/kg oral
Experimental: as §4, §5

[6] = test system: hypercholesterolemic rabbit; assay type: in vivo
Experimental: 3) Study of Antiatherosclerotic Effects in the Hypercholesterolemic Rabbit.
Two batches of 15 male rabbits (Elevage scientifique des Dombes: 2.5-3 kg) received a cholesterol-rich food: 0.2% for the period D+8 to D+37, then 1% until D+69, when the animals are sacrificed.
The first batch was not treated and therefore served as a control while the second batch received 500 mg/kg of magnesium (-)hydroxycitrate by oral route.

hypertensive rat = test: Anti-hypertensive activity in the hypertensive rat; assay type: in vivo; details: 500 mg/kg/day oral, one week, vs untreated controls
Experimental: 4) Study of Anti-hypertensive Activity in the Hypertensive Rat
Magnesium (-)hydroxycitrate was tested on 12 hypertensive rats. A batch of 12 other hypertensive rats was used as a control batch. An average reduction in arterial pressure of 17%±3% with respect to the controls (untreated) was noted after one week of treatment at a rate of 500 mg per kilogram per day by oral route.

in vivo = details: rat
Text: The toxicity of magnesium (-)hydroxycitrate is greater than 2 g/kg by intraperitoneal route or than 7 g/kg per os in the rat. That of metals, in particular in the form of salts or mineral oxides (frequently administered as trace elements) is well known.

[7] = literature, Majeed et al. 1994; in words; cited from earlier work
[8] = result in words, with respect to (-)hydroxycitrate or magnesium
[9] = 500 mg/kg/day oral, 62 days, vs controls

Which results are given for `O=C(O)C[C@@](O)(C(=O)O)[C@H](O)C(=O)O` [Magnesium (-)hydroxycitrate, magnesium (-)hydroxycitrate]?
protective effect on cell mortality [1]: more protective effect; Reduction in percentages: accumulation of lipids [2]: 81 (±13) %; effect on accumulation of lipids [2, 8]: very significant increase in the effects; Reduction in percentages: proliferation of cells [3]: 48 (±8) %; effect on cell proliferation [3, 8]: very significant increase in the effects; HDL's, variation ([4]; 4 weeks, vs controls): +8.5%; LDL's, variation ([4]; 4 weeks, vs controls): -22.4%; Total cholesterol, variation ([4]; 4 weeks, vs controls): -19.5%; Total cholesterol/HDL ratio, variation ([4]; 4 weeks, vs controls): -28.2%; HDL's, in words ([4]; after 4 weeks): increase in HDL's; LDL's, in words ([4]; after 4 weeks): reduction in LDL's; HDL's ([4]; after 4 weeks of treatment): 0.246 g/L; LDL's ([4]; after 4 weeks of treatment): 4.00 g/L; Total cholesterol ([4]; after 4 weeks of treatment): 4.47 g/L; Total cholesterol/HDL ratio ([4]; after 4 weeks of treatment): 19.22; number of lipidic deposits, aortic arch, week 4 ([5]; 4 weeks): 3.5; number of lipidic deposits, thoracic arch, week 4 ([5]; 4 weeks): 0.0; number of lipidic deposits, aortic arch, week 8 ([5]; 8 weeks): 1.5; number of lipidic deposits, thoracic arch, week 8 ([5]; 8 weeks): 0.0; number of lipidic deposits, in words ([5]; after 4 weeks and after 8 weeks): reduction in the number of lipidic deposits; number of lipidic deposits, total ([5]; sum of aortic and thoracic arch, weeks 4 and 8): 5.0; lipidic deposits, total, Variation % ([5]; vs controls): -80.4%; Reduction in weight of spleen ([6]; 500 mg/kg/day oral, 62 days): -20.3%; Reduction in weight of surrenal glands ([6]; 500 mg/kg/day oral, 62 days): -21.6%; Reduction in lipidic deposits on the aortic vascular wall ([6]; 500 mg/kg/day oral, 62 days, vs control batch): 46.3%; Reduction in the total cholesterol level [6, 9]: -13.75%; Reduction in the total cholesterol/HDL ratio [6, 9]: -25.72%; increase in HDL levels [6, 9]: +12.5%; Reduction in LDL's ([6]; 500 mg/kg/day oral, 62 days, vs controls, given without sign): 16.36%; weight of heart, liver ([6]; 500 mg/kg/day oral, 62 days, in words): Reduction in weight of heart, liver; overall effect on the hypercholesterolemic rabbit ([6]; non-cytotoxic doses, in words): hypocholesterolemia and anti-atherosclerotic effect; average reduction in arterial pressure (hypertensive rat): 17%±3%; LD50 (in vivo; ip, intraperitoneal, read-out: toxicity, intraperitoneal route): > 2000 mg/kg; LD50 (in vivo; po, per os, read-out: toxicity, per os): > 7000 mg/kg

Which results are given for Silicon?
Reduction in percentages: cell mortality [1]: 28 (±7) %; Reduction in percentages: accumulation of lipids [2]: 32 (±5) %; Reduction in percentages: proliferation of cells [3]: 28 (±6) %

Which results are given for Magnesium?
Reduction in percentages: cell mortality [1]: 6 (±3) %; protective effect on cell mortality [1]: reduces this mortality very slightly; Reduction in percentages: accumulation of lipids [2]: 20 (±9) %; Reduction in percentages: proliferation of cells [3]: 2 (±2) %

For `O=C(O)CC(O)(C(=O)O)C(O)C(=O)O` (single isomer, unassigned; (-)) [(-)hydroxycitrate, (-)hydroxycitric acid], which “protective effect on cell mortality” value [1] is on record?
Its value is “no protective effect on cell mortality”.

And the “Reduction in percentages: accumulation of lipids” value [2]?
Its value is 16 (±3) %.

What about the “Reduction in percentages: proliferation of cells” value [3] of the same compound?
The value was 6 (±4) %.

What about the body weight [7] of the same compound?
The body weight was “reduces body weight”.
